Converted amounts (≈) assume the structure as drawn. Where two headings read alike, the source gives them in different places. Non-standard residues stand in square brackets, D forms with d. Residues, ends and D or L forms follow the SMILES beside them. Dap(N3) = [N-]=[N+]=NC[C@H](N)C(=O)O
System: E. coli (ATCC25922)
Assay type: cell-based, Escherichia coli
Details: for MIC (μg/ml), repeat 1 / MIC (μg/ml), repeat 2 / MIC (μg/ml), repeat 3: ATCC25922
From the text: To determine how the cell killing ability of the vector-Bicycle variants changed when compared to the original vector, their antimicrobial activity was examined against a clinical strain of E. coli (ATCC25922) in cation-adjusted Mueller Hinton broth (CaMHB). The minimum inhibitory concentration (MIC) is defined as the lowest concentration of compound that completely prevents bacterial growth (Table 2). The unconjugated Bicycle molecule (AB1) and the original unconjugated vector (AV1) were used to make the MAP-Bicycle conjugate A1. All MAP-Bicycle conjugates contain the AB1 Bicycle molecule, linked to a variant of the original MAP (e.g., C2, S2, H6). The unconjugated MAP variants are labeled with the equivalent letter and number but with a “V” included in the name (e.g., CV2, SV2, HV6, see Table 1 for all vector variants).
Bacterial stock was streaked onto LB agar plates and incubated at 37 °C for 16–18 h. Using a sterile swab, single colonies were picked and resuspended in 2 mL of 0.9% saline solution, visually matching the turbidity of a 0.5 McFarland standard and having an OD600 nm of 0.18–0.25 (which corresponds to […]). The suspension was diluted 200-fold in cation-adjusted Mueller–-Hinton Broth (Ca-MHB), and 100 μL of the diluted culture was pipetted in wells of a 96-well plate containing 100 μL of a 2-factor dilution series of a compound per row of wells. The plate was incubated at 37 °C for 19 h. Afterward, the OD600 nm of each well was read using a Pherastar FSX plate reader. MIC values were determined, with the MIC being the lowest concentration of the compound at which growth was absent (i.e., OD600 nm was equivalent to no growth, as observed in carbenicillin control wells). This was also verified visually. […]

[1] = E. coli ATCC25922, CaMHB, 37 °C, 19 h, OD600 nm read, range of at least 3 biological repeats

With “CAzal - dR dW dS dR dW dV dR dR dL dR dK – CONH2 [CV6, standalone MAP vector variant of AV1, single arginine substitution]” the “MIC” value [1] was 16 µg/mL.
CC(C)C[C@@H](NC(=O)[C@@H](CCCNC(=N)N)NC(=O)[C@@H](CCCNC(=N)N)NC(=O)[C@H](NC(=O)[C@@H](CCCNC(=N)N)NC(=O)[C@@H](CCCNC(=N)N)NC(=O)[C@@H](CO)NC(=O)[C@@H](Cc1c[nH]c2ccccc12)NC(=O)[C@@H](CCCNC(=N)N)NC(=O)[C@@H](N)CN=[N+]=[N-])C(C)C)C(=O)N[C@H](CO)C(=O)N[C@H](CCCCN)C(N)=O [CV3] (H-[Dap(N3)][dR][dW][dS][dR][dR][dV][dR][dR][dL][dS][dK]-NH2; N-terminus and C-terminus assumed) was tested, and the “MIC (μg/ml), repeat 1” value was greater than 64 µg/mL, the “MIC (μg/ml), repeat 2” value was greater than 64 µg/mL and the “MIC (μg/ml), repeat 3” value was greater than 64 µg/mL. The “MIC” value (ATCC25922, 19 h) was greater than 39.7 µM.
CC(C)C[C@@H](NC(=O)[C@@H](CCCNC(=N)N)NC(=O)[C@@H](CCCNC(=N)N)NC(=O)[C@H](NC(=O)[C@@H](Cc1c[nH]c2ccccc12)NC(=O)[C@@H](CCCNC(=N)N)NC(=O)[C@@H](CCCNC(=N)N)NC(=O)[C@@H](Cc1c[nH]c2ccccc12)NC(=O)[C@@H](CCCNC(=N)N)NC(=O)[C@@H](N)CN=[N+]=[N-])C(C)C)C(=O)N[C@H](CO)C(=O)N[C@H](CCCCN)C(N)=O [CV2] (H-[Dap(N3)][dR][dW][dR][dR][dW][dV][dR][dR][dL][dS][dK]-NH2; N-terminus and C-terminus assumed) was tested, and the “MIC” value (ATCC25922, 19 h) was 9.4 µM and the “MIC” value [1] was 16 µg/mL.
CC(C)C[C@@H](NC(=O)[C@@H](CCCNC(=N)N)NC(=O)[C@@H](CCCNC(=N)N)NC(=O)[C@H](NC(=O)[C@@H](Cc1c[nH]c2ccccc12)NC(=O)[C@@H](CCCNC(=N)N)NC(=O)[C@@H](CO)NC(=O)[C@@H](CCCNC(=N)N)NC(=O)[C@@H](CCCNC(=N)N)NC(=O)[C@@H](N)CN=[N+]=[N-])C(C)C)C(=O)N[C@H](CO)C(=O)N[C@H](CCCCN)C(N)=O [CV1] (H-[Dap(N3)][dR][dR][dS][dR][dW][dV][dR][dR][dL][dS][dK]-NH2; N-terminus and C-terminus assumed) was tested, and the “MIC (μg/ml), repeat 1” value was greater than 64 µg/mL, the “MIC (μg/ml), repeat 2” value was greater than 64 µg/mL and the “MIC (μg/ml), repeat 3” value was greater than 64 µg/mL. The “MIC” value (ATCC25922, 19 h) was greater than 39.7 µM.
In the case of CC(C)C[C@@H](NC(=O)[C@@H](CCCNC(=N)N)NC(=O)[C@@H](CCCNC(=N)N)NC(=O)[C@H](NC(=O)[C@@H](Cc1c[nH]c2ccccc12)NC(=O)[C@@H](CCCNC(=N)N)NC(=O)[C@@H](CO)NC(=O)[C@@H](Cc1c[nH]c2ccccc12)NC(=O)[C@@H](CCCNC(=N)N)NC(=O)[C@@H](N)CN=[N+]=[N-])C(C)C)C(=O)N[C@H](CO)C(=O)N[C@H](CCCCN)C(N)=O [AV1] (H-[Dap(N3)][dR][dW][dS][dR][dW][dV][dR][dR][dL][dS][dK]-NH2; N-terminus and C-terminus assumed), the “MIC” value (ATCC25922, 19 h) is reported as 19.5 µM and the “MIC” value [1] is reported as 32 µg/mL.
With CC(C)C[C@@H](NC(=O)[C@@H](CCCNC(=N)N)NC(=O)[C@@H](CCCNC(=N)N)NC(=O)[C@@H](CCCNC(=N)N)NC(=O)[C@@H](Cc1c[nH]c2ccccc12)NC(=O)[C@@H](CCCNC(=N)N)NC(=O)[C@@H](CO)NC(=O)[C@@H](Cc1c[nH]c2ccccc12)NC(=O)[C@@H](CCCNC(=N)N)NC(=O)[C@@H](N)CN=[N+]=[N-])C(=O)N[C@H](CO)C(=O)N[C@H](CCCCN)C(N)=O [CV4] (H-[Dap(N3)][dR][dW][dS][dR][dW][dR][dR][dR][dL][dS][dK]-NH2; N-terminus and C-terminus assumed) the “MIC” value (ATCC25922, 19 h) was 18.8 µM and the “MIC” value [1] was 32 µg/mL.
For “CAzal - dR dW dS dR dW dV dR dR dR dR dK – CONH2 [CV12, standalone MAP vector variant of AV1, double arginine substitution]”, the “MIC” value [1] was 16 µg/mL.
In the case of CC(C)[C@@H](NC(=O)[C@@H](Cc1c[nH]c2ccccc12)NC(=O)[C@@H](CCCNC(=N)N)NC(=O)[C@@H](CO)NC(=O)[C@@H](Cc1c[nH]c2ccccc12)NC(=O)[C@@H](CCCNC(=N)N)NC(=O)[C@@H](N)CN=[N+]=[N-])C(=O)N[C@H](CCCNC(=N)N)C(=O)N[C@H](CCCNC(=N)N)C(=O)N[C@H](CCCNC(=N)N)C(=O)N[C@H](CO)C(=O)N[C@H](CCCCN)C(N)=O [CV5] (H-[Dap(N3)][dR][dW][dS][dR][dW][dV][dR][dR][dR][dS][dK]-NH2; N-terminus and C-terminus assumed), the “MIC” value (ATCC25922, 19 h) is reported as 19 µM and the “MIC” value [1] is reported as 32 µg/mL.
For CC(C)C[C@@H](NC(=O)[C@@H](CCCNC(=N)N)NC(=O)[C@@H](CCCNC(=N)N)NC(=O)[C@H](NC(=O)[C@@H](Cc1c[nH]c2ccccc12)NC(=O)[C@@H](CCCNC(=N)N)NC(=O)[C@@H](CCCNC(=N)N)NC(=O)[C@@H](CCCNC(=N)N)NC(=O)[C@@H](CCCNC(=N)N)NC(=O)[C@@H](N)CN=[N+]=[N-])C(C)C)C(=O)N[C@H](CO)C(=O)N[C@H](CCCCN)C(N)=O [CV8] (H-[Dap(N3)][dR][dR][dR][dR][dW][dV][dR][dR][dL][dS][dK]-NH2; N-terminus and C-terminus assumed), the “MIC (μg/ml), repeat 1” value was 64 µg/mL (≈ 38.1 µM), the “MIC (μg/ml), repeat 2” value was 64 µg/mL (≈ 38.1 µM) and the “MIC (μg/ml), repeat 3” value was greater than 64 µg/mL.
